Tested on: Normal human fibroblasts
Protocol: Normal human fibroblasts were trypsinised and seeded in 12 well plates at a density of […]. When confluent, the cells were transferred to a culture medium with an amino acid distribution and concentrations designed to mimic those in human serum as closely as possible. The cell cultures were divided into two categories, a control culture in which the culture medium contained 0.201 mM proline and an experimental sample in which the culture medium contained 0.592 mM proline. After 24 hours fibroblast-conditioned medium containing 100 microgram/ml beta-aminoproprionitrile to prevent cross-linking of collagen molecules in the cultures was collected. The conditioned medium was dotblotted to a nitrocellulose membrane and probed for collagen type I content with a polyclonal immune-absorbed antibody. The value shown for the proline-supplemented samples is relative to the controls set at 100%.

`O=C(O)[C@@H]1CCCN1` [Proline, proline] was tested, and the “% of control value (collagen type I content)” value (0.502 mM proline in culture medium vs control medium with 0.201 mM proline set at 100%, conditioned medium collected after 24 hours) was 150% ± 21.9% and the “increase in collagen synthesis” value (human fibroblasts, proline-supplemented medium vs control) was 50%.
